Experimental data as given in ChEMBL document CHEMBL4229365, “Synthesis of novel ring-contracted artemisinin dimers with potent anticancer activities” (Eur J Med Chem, 2018).

Experiments:
[1] = system: A549; experiment: Antiproliferative activity against human A549 cells after 72 hrs by CCK-8 assay; type: functional, cell-based; details: A549, 72 h
[2] = system: A-375; experiment: Antiproliferative activity against human A375 cells after 72 hrs by CCK-8 assay; type: functional, cell-based; details: A-375, 72 h
[3] = system: PC-12; experiment: Antiproliferative activity against rat PC12 cells after 72 hrs by CCK-8 assay; type: functional, cell-based; details: PC-12, 72 h
[4] = system: SH-SY5Y; experiment: Antiproliferative activity against human SH-SY5Y cells after 72 hrs by CCK-8 assay; type: functional, cell-based
[5] = system: HCT-116; experiment: Antiproliferative activity against human HCT116 cells after 72 hrs by CCK-8 assay; type: functional, cell-based; details: HCT-116, 72 h
[6] = system: L02; experiment: Antiproliferative activity against human L02 cells after 72 hrs by CCK-8 assay; type: cell-based; details: L02, 72 h

| SMILES | IC50 [1] [µM] | IC50 [2] [µM] | IC50 [3] [µM] | IC50 [4] [µM] | IC50 [5] [µM] | IC50 [6] [µM] |
| --- | --- | --- | --- | --- | --- | --- |
| C[C@@H]1CC[C@@H]2[C@]34OO[C@](C)(CC[C@@H]13)O[C@H]4O[C@]2(C)C(=O)Nc1ccc(NC(=O)[C@@]2(C)O[C@@H]3O[C@@]4(C)CC[C@H]5[C@H](C)CC[C@@H]2[C@@]35OO4)cc1 | > 50 | > 50 | > 50 | > 50 | > 50 |  |
| C[C@@H]1CC[C@@H]2[C@]34OO[C@](C)(CC[C@@H]13)O[C@H]4O[C@]2(C)C(=O)NCCCCCCNC(=O)[C@@]1(C)O[C@@H]2O[C@@]3(C)CC[C@H]4[C@H](C)CC[C@@H]1[C@@]24OO3 | > 50 | 35.3 | > 50 | > 50 | > 50 |  |
| C[C@H]1[C@@H](O)O[C@@H]2O[C@@]3(C)CC[C@H]4[C@H](C)CC[C@@H]1[C@@]24OO3 [ARTENIMOL] | 29.9 | > 50 | > 50 | > 50 | 32.8 | > 50 |
| C[C@@H]1CC[C@@H]2[C@]34OO[C@](C)(CC[C@@H]13)O[C@H]4O[C@]2(C)C(=O)O | > 50 | > 50 | 37.3 | > 50 | > 50 | > 50 |
| C[C@@H]1CC[C@@H]2[C@]34OO[C@](C)(CC[C@@H]13)O[C@H]4O[C@]2(C)C(=O)OCCCCCCCCOC(=O)[C@@]1(C)O[C@@H]2O[C@@]3(C)CC[C@H]4[C@H](C)CC[C@@H]1[C@@]24OO3 | 4.69 | 5.73 | 5.67 | 4.87 | 31.6 | 4.84 |
| C[C@@H]1CC[C@@H]2[C@]34OO[C@](C)(CC[C@@H]13)O[C@H]4O[C@]2(C)CO | > 50 | > 50 | > 50 | > 50 | > 50 | > 50 |
| C[C@@H]1CC[C@@H]2[C@]34OO[C@](C)(CC[C@@H]13)O[C@H]4O[C@]2(C)C(=O)OCCCCOC(=O)[C@@]1(C)O[C@@H]2O[C@@]3(C)CC[C@H]4[C@H](C)CC[C@@H]1[C@@]24OO3 | 6.56 | 13.2 | 8.52 | 6.26 | 7.65 | 16.2 |
| C[C@@H]1CC[C@@H]2[C@]34OO[C@](C)(CC[C@@H]13)O[C@H]4O[C@]2(C)C(=O)Nc1ccccc1NC(=O)[C@@]1(C)O[C@@H]2O[C@@]3(C)CC[C@H]4[C@H](C)CC[C@@H]1[C@@]24OO3 | 31.6 | 11.3 | 18.2 | 5.75 | 20 | > 50 |
| COc1cccc2c1C(=O)c1c(O)c3c(c(O)c1C2=O)C[C@@](O)(C(=O)CO)C[C@@H]3O[C@H]1C[C@H](N)[C@H](O)[C@H](C)O1 [DOXORUBICIN] | 0.43 | 0.37 | 0.52 | 0.35 | 0.79 | 0.85 |
| C[C@@H]1CC[C@@H]2[C@]34OO[C@](C)(CC[C@@H]13)O[C@H]4O[C@]2(C)C(=O)OCCOC(=O)[C@@]1(C)O[C@@H]2O[C@@]3(C)CC[C@H]4[C@H](C)CC[C@@H]1[C@@]24OO3 | > 50 | > 50 | > 50 | > 50 | > 50 |  |
| C[C@@H]1CC[C@@H]2[C@]34OO[C@](C)(CC[C@@H]13)O[C@H]4O[C@]2(C)C(=O)OCCCCCCCCCCOC(=O)[C@@]1(C)O[C@@H]2O[C@@]3(C)CC[C@H]4[C@H](C)CC[C@@H]1[C@@]24OO3 | 29 | 20.8 | > 50 | > 50 | > 50 | > 50 |
| C[C@@H]1CC[C@H]2[C@@H](C)C(=O)O[C@@H]3O[C@@]4(C)CC[C@@H]1[C@]32OO4 [ARTEMISININ] | > 50 | > 50 | > 50 | > 50 | > 50 | > 50 |
| C[C@@H]1CC[C@@H]2[C@]34OO[C@](C)(CC[C@@H]13)O[C@H]4O[C@]2(C)/C=C\COP(=O)(OC/C=C/[C@@]1(C)O[C@@H]2O[C@@]3(C)CC[C@H]4[C@H](C)CC[C@@H]1[C@@]24OO3)Oc1ccccc1 | 10.7 | 8.14 | 7.22 | 5.79 | 9.1 | 31.6 |
